Read-outs that look alike come from different tables or passages of the source.
Experiments:
[1] = tested on: Horn Fly (Haematobia irritans); assay: Cattle Ectoparasiticide Test, pour-on or spray against horn flies; assay type: in vivo
Excerpt: Cattle Ectoparasiticide Test (CET)/Horn Fly (Haematobia irritans) and/or Adult Tick (Amblyomma americanum): Cattle are housed in environmentally controlled rooms, 1 or 2 animals per room that have screened doors and ventilation system to prevent fly escape. Following treatment application, a defined number of horn flies are released into each room (typically at or above economic threshold of 200 flies per animal). After defined periods of time, the numbers of live horn flies remaining on animals are enumerated. If a combination horn fly and tick experiment is conducted, adult lone star ticks are placed into surgical stockinette enclosures that are glued onto the backs of cattle. Cattle are restrained in a modified head gate within environmentally controlled rooms. Horn flies may be enumerated, followed by determination of the numbers of dead ticks inside of containment units. Typically there are 2 containment units per animal and at least 2 animals per treatment group.
B) Therapeutic and residual efficacy testing of spinetoram and Elector against horn flies when applied topically to cattle as a pour-on or topical spray. Spinetoram (120 g/L), Elector (25 g/L spinosad) as described previously were used. Test material was applied to animals as either a whole-body topical spray or neat pour-on. Spinetoram was diluted in water to 25 g/L prior to application as a pour-on. Both materials were diluted in water to 0.04% (400 ppm) for application as a whole-body spray in a total volume of 1 L per animal. There were a total of six animals per treatment group (n=6) plus six negative control animals. Beef and dairy cattle were used. Following treatments, horn flies were released into rooms harboring cattle. Live flies were enumerated 24 h following challenges.

Boophilus annulatus = assay: Whole-body spray treatment of Boophilus annulatus infestations on cattle; assay type: in vivo
Procedure: C) Efficacy Testing and comparison of topically applied spinetoram with spinosad for the treatment of Boophilus annulatus infestations on cattle. Technical spinetoram and technical spinosad both formulated as 25 g/L suspension concentrate formulations similar to commercial Elector. Stability assays (HPLC and LPT bioassays) were conducted to confirm potency over extended periods of time (5 weeks) at cool and shelf-temperatures. Cattle were pre-infested 21 d prior to treatment with larval-stage B. annulatus ticks resulting the presence of very high numbers of all three life-stages of this tick at the time of treatment. Test materials were diluted to 0.025% (250 ppm) and applied to cattle as whole-body topical sprays in a volume of 10 L per animal. There were a total of six animals per treatment group (n=6). Animals were housed in covered stalls under ambient conditions of temperature and humidity. Engorged, detached adult female ticks were retrieved from animals in each stall on a daily basis. Egg masses were weighed and eggs were set for hatching to assess viability. Efficacy was measured in terms of total numbers of female ticks per animal and index of fecundity (IF).
Means were tested by General Linear Model (GLM), 1-way ANOVA. Differences (P<0.05) among means were separated using Tukey's all pairwise comparison. Means within the same column followed by different letters were significant at the P<0.05 level.
Means were tested by General Linear Model (GLM), 2-way ANOVA with parasitic life stage and treatment group as main effects. NS denotes not significant.

house flies = tested on: house flies
Procedure: Knockdown and residual efficacy testing and comparison of spinetoram with Elector® for controlling house flies on treated panels.
Test material concentrates of spinetoram (120 g/L suspension concentrate) and spinosad (25 g/L suspension concentrate, Elector) were diluted in distilled water to the desired testing concentrations of either 0.04% (spinetoram only) or 0.08% (both) per label recommended premise spray use rate for controlling house flies with Elector. One square foot panels, obtained from commercial building suppliers, were composed of non-treated plywood, concrete and sheet metal. A second set of both plywood and concrete substrates were primed and painted using exterior grade latex white latex paint. Diluted materials were sprayed onto panels to the point of run-off (approximately 5 seconds per panel). A total of 4 panels were tested per treatment group (n=4). House flies were anesthetized using carbon dioxide and placed inside of plastic containers secured onto panels. There were 4 sub-replicates containers per panel, each container containing 10 mixed-sex adult flies (40 flies per panel). Glucose-saturated dental wicks were secured through a hole in each cup to provide a food and water source for flies. Panels remained upright throughout testing. Fly mortality and moribundity was assessed at post-exposure intervals of 4, 8, 24, 48 and 72 hours immediately following treatment applications and again on a weekly basis for 1 month.

[2] = cattle, 0.025% AI whole-body spray, mean ± SD
[3] = 4 Week Residual Activity, Sheet Metal, 400 ppm
[4] = 4 Week Residual Activity, Sheet Metal, 800 ppm
[5] = 4 Week Residual Activity, Unpainted Concrete, 400 ppm
[6] = 4 Week Residual Activity, Unpainted Concrete, 800 ppm
[7] = 4 Week Residual Activity, Unpainted Wood, 400 ppm
[8] = 4 Week Residual Activity, Unpainted Wood, 800 ppm
[9] = Initial Activity, Sheet Metal, 400 ppm
[10] = Initial Activity, Sheet Metal, 800 ppm
[11] = Initial Activity, Unpainted Concrete, 400 ppm
[12] = Initial Activity, Unpainted Concrete, 800 ppm
[13] = Initial Activity, Unpainted Wood, 400 ppm
[14] = Initial Activity, Unpainted Wood, 800 ppm

Spinetoram
GM percent horn fly reduction after 24 hrs, Pour-on ([1]; cattle, pour-on 2 mg/kg, Initial): 100%
GM percent horn fly reduction after 24 hrs, Spray ([1]; cattle, whole-body spray 0.04% AI, Initial): 99.9%
therapeutic efficacy compared with Elector ([1]; horn fly infested cattle, pour-on (2 mg/kg) or whole-body spray (0.04% AI)): equivalent therapeutic efficacy
initial/knockdown activity against B. annulatus (Boophilus annulatus; cattle, 0.025% AI): poor
Number ♀♀ Ticks per Calf (Boophilus annulatus; [2]): 2405 ± 306 a
Total Index of Fecundity (IF) (Boophilus annulatus; [2]): 287 ± 35.4 a
Percentage Control of the IF (Boophilus annulatus; cattle, 0.025% AI whole-body spray, therapeutic efficacy): 28.0 ± 8.9 a %
Percentage control, Adult (Boophilus annulatus; parasitic life stage adult, 0.025% AI): 17.2 ± 25.0%
Percentage control, Larval (Boophilus annulatus; parasitic life stage larva, 0.025% AI): 38.6 ± 10.6%
Percentage control, Nymph (Boophilus annulatus; parasitic life stage nymph, 0.025% AI): 31.6 ± 20.8%
residual efficacy, mean percentage control of the IF, Week 1 (Boophilus annulatus; ticks infested as larvae Week 1 after treatment): 95.3 ± 3.3%
residual efficacy, mean percentage control of the IF, Week 2 (Boophilus annulatus; ticks infested as larvae Week 2 after treatment): 96.7 ± 2.3%
residual efficacy, mean percentage control of the IF, Week 3 (Boophilus annulatus; ticks infested as larvae Week 3 after treatment): 89.3 ± 8.0%
residual efficacy, mean percentage control of the IF, Week 4 (Boophilus annulatus; ticks infested as larvae Week 4 after treatment): 80.4 ± 11.5%
% House Fly Mortality at 4 h (house flies; [3]): 0%
% House Fly Mortality at 8 h (house flies; [3]): 40.6%
% House Fly Mortality at 24 h (house flies; [3]): 91.3%
% House Fly Mortality at 48 h (house flies; [3]): 97.3%
% House Fly Mortality at 4 h (house flies; [4]): 0.6%
% House Fly Mortality at 8 h (house flies; [4]): 26.3%
% House Fly Mortality at 24 h (house flies; [4]): 80.6%
% House Fly Mortality at 48 h (house flies; [4]): 96.3%
% House Fly Mortality at 4 h (house flies; [5]): 4.2%
% House Fly Mortality at 8 h (house flies; [5]): 80.0%
% House Fly Mortality at 24 h (house flies; [5]): 100%
% House Fly Mortality at 48 h (house flies; [5]): 100%
% House Fly Mortality at 4 h (house flies; [6]): 31.3%
% House Fly Mortality at 8 h (house flies; [6]): 98.8%
% House Fly Mortality at 24 h (house flies; [6]): 100%
% House Fly Mortality at 48 h (house flies; [6]): 100%
% House Fly Mortality at 4 h (house flies; [7]): 0.6%
% House Fly Mortality at 8 h (house flies; [7]): 0.6%
% House Fly Mortality at 24 h (house flies; [7]): 4.7%
% House Fly Mortality at 48 h (house flies; [7]): 12.1%
% House Fly Mortality at 4 h (house flies; [8]): 0%
% House Fly Mortality at 8 h (house flies; [8]): 0%
% House Fly Mortality at 24 h (house flies; [8]): 22.6%
% House Fly Mortality at 48 h (house flies; [8]): 61.2%
% House Fly Mortality at 4 h (house flies; [9]): 19.7%
% House Fly Mortality at 8 h (house flies; [9]): 91.8%
% House Fly Mortality at 24 h (house flies; [9]): 100%
% House Fly Mortality at 48 h (house flies; [9]): 100%
% House Fly Mortality at 4 h (house flies; [10]): 31.5%
% House Fly Mortality at 8 h (house flies; [10]): 100%
% House Fly Mortality at 24 h (house flies; [10]): 100%
% House Fly Mortality at 48 h (house flies; [10]): 100%
% House Fly Mortality at 4 h (house flies; [11]): 45.4%
% House Fly Mortality at 8 h (house flies; [11]): 98.6%
% House Fly Mortality at 24 h (house flies; [11]): 100%
% House Fly Mortality at 48 h (house flies; [11]): 100%
% House Fly Mortality at 4 h (house flies; [12]): 42.5%
% House Fly Mortality at 8 h (house flies; [12]): 99.2%
% House Fly Mortality at 24 h (house flies; [12]): 100%
% House Fly Mortality at 48 h (house flies; [12]): 100%
% House Fly Mortality at 4 h (house flies; [13]): 1.3%
% House Fly Mortality at 8 h (house flies; [13]): 5.9%
% House Fly Mortality at 24 h (house flies; [13]): 83.7%
% House Fly Mortality at 48 h (house flies; [13]): 98.8%
% House Fly Mortality at 4 h (house flies; [14]): 0.6%
% House Fly Mortality at 8 h (house flies; [14]): 39.4%
% House Fly Mortality at 24 h (house flies; [14]): 100%
% House Fly Mortality at 48 h (house flies; [14]): 100%
activity compared to Elector (house flies; at one half the application rate, sheet metal and unpainted concrete panels): equivalent or superior to Elector
initial activity compared to Elector (house flies; unpainted plywood): equivalent initial activity
residual activity compared to Elector (house flies; unpainted plywood): marginally inferior residual activity

— patent US20150045313A1, “Ectoparasiticidal Methods and Formulations” (Eli Lilly and Company, priority 2009, published 2015)
